Where no end group is shown, it is not given here.
Columns and labels:
H9C2 cells [1] = assay: Alanine scan: percentage of Cy5.5 positive H9C2 cells by FACS; format: cell-based, rat; settings: percentage of Cy5.5 positive H9C2 cells normalized to non-mutated peptide (SEQ ID NO: 1); Cy5.5-conjugated peptides, 30 minutes at 37° C.
Method: (§1) Variants of SEQ ID NO: 1 in which every amino acid was systematically mutated to alanine were synthesized in the University of Pittsburgh Peptide Synthesis Facility. Each variant was conjugated to the Cyanine5.5 fluorescent dye (Cy5.5). The rat cardiomyocyte cell line H9C2 (ATCC, catalogue #: CRL-1446) was incubated for 30 minutes at 37° C. with Dimethyl sulfoxide (DMSO) as a control, or the alanine peptide variants. Cells were then washed 3 times with PBS, trypsinized and resuspended, stained for live/dead cells, and then FACS sorted for Cy5.5 positive cells.
The percentage of Cy5.5 positive H9C2 cells, normalized to the non-mutated peptide (SEQ ID NO: 1), for each peptide variant is summarized in Table 2 below.

H9C2 cells [2] = assay: Fluorescence activated cell sorting of H9C2 cells after 30 min incubation with 10 uM peptide (median Cy5.5); format: cell-based, rat; settings: for Corrected Median Cy5.5 / Raw Median Cy5.5: H9C2 cells, 30 min incubation, 10 uM peptide, single replicates; for Corrected Median Cy5.5: corrected for peptide fluorescence; for Average Correction: average of corrected median Cy5.5, H9C2 cells, FIG. 1C
Method: as §1

APAHLSSQYSRT (also: Cy5.5 conjugate, site not given here) [W3A, alanine variant of CTP, Cy5.5 conjugated]
% transduction of H9C2 Cells (H9C2 cells [1]): 75.81%
Corrected Median Cy5.5 (H9C2 cells [2]; listed as W3A_001): 5369.7
Corrected Median Cy5.5 (H9C2 cells [2]; listed as W3A_002): 5369.7
Corrected Median Cy5.5 (H9C2 cells [2]; listed as W3A_003): 5258.1
Raw Median Cy5.5 (H9C2 cells [2]; listed as W3A_001): 4862
Raw Median Cy5.5 (H9C2 cells [2]; listed as W3A_002): 4862
Raw Median Cy5.5 (H9C2 cells [2]; listed as W3A_003): 4761
Average Correction (H9C2 cells [2]): 5332.5

APWALSSQYSRT (also: Cy5.5 conjugate, site not given here) [H4A, alanine variant of CTP, Cy5.5 conjugated]
% transduction of H9C2 Cells (H9C2 cells [1]): 55.05%
Corrected Median Cy5.5 (H9C2 cells [2]; listed as H4A_001): 7666.1
Corrected Median Cy5.5 (H9C2 cells [2]; listed as H4A_002): 8011.3
Corrected Median Cy5.5 (H9C2 cells [2]; listed as H4A_003): 6934.0
Raw Median Cy5.5 (H9C2 cells [2]; listed as H4A_001): 7173
Raw Median Cy5.5 (H9C2 cells [2]; listed as H4A_002): 7496
Raw Median Cy5.5 (H9C2 cells [2]; listed as H4A_003): 6488
Average Correction (H9C2 cells [2]): 7537.1

APWHASSQYSRT (also: Cy5.5 conjugate, site not given here) [L5A, alanine variant of CTP, Cy5.5 conjugated]
% transduction of H9C2 Cells (H9C2 cells [1]): 87.81%
Corrected Median Cy5.5 (H9C2 cells [2]; listed as L5A_001): 5077.5
Corrected Median Cy5.5 (H9C2 cells [2]; listed as L5A_002): 5522.0
Corrected Median Cy5.5 (H9C2 cells [2]; listed as L5A_003): 5370.0
Raw Median Cy5.5 (H9C2 cells [2]; listed as L5A_001): 3107
Raw Median Cy5.5 (H9C2 cells [2]; listed as L5A_002): 3379
Raw Median Cy5.5 (H9C2 cells [2]; listed as L5A_003): 3286
Average Correction (H9C2 cells [2]): 5323.2

APWHLASQYSRT (also: Cy5.5 conjugate, site not given here) [S6A, alanine variant of CTP, Cy5.5 conjugated]
% transduction of H9C2 Cells (H9C2 cells [1]): 107.21%
Corrected Median Cy5.5 (H9C2 cells [2]; listed as S6A_001): 17793.0
Corrected Median Cy5.5 (H9C2 cells [2]; listed as S6A_002): 18393.5
Corrected Median Cy5.5 (H9C2 cells [2]; listed as S6A_003): 20420.3
Raw Median Cy5.5 (H9C2 cells [2]; listed as S6A_001): 22342
Raw Median Cy5.5 (H9C2 cells [2]; listed as S6A_002): 23096
Raw Median Cy5.5 (H9C2 cells [2]; listed as S6A_003): 25641
Average Correction (H9C2 cells [2]): 18868.9

APWHLSAQYSRT (also: Cy5.5 conjugate, site not given here) [S7A, alanine variant of CTP, Cy5.5 conjugated]
% transduction of H9C2 Cells (H9C2 cells [1]): 54.32%
Corrected Median Cy5.5 (H9C2 cells [2]; listed as S7A_001): 21208.1
Corrected Median Cy5.5 (H9C2 cells [2]; listed as S7A_002): 23475.6
Corrected Median Cy5.5 (H9C2 cells [2]; listed as S7A_003): 23755.1
Raw Median Cy5.5 (H9C2 cells [2]; listed as S7A_001): 20184
Raw Median Cy5.5 (H9C2 cells [2]; listed as S7A_002): 22342
Raw Median Cy5.5 (H9C2 cells [2]; listed as S7A_003): 22608
Average Correction (H9C2 cells [2]): 22813.0

APWHLSSAYSRT (also: Cy5.5 conjugate, site not given here) [Q8A, alanine variant of CTP, Cy5.5 conjugated]
% transduction of H9C2 Cells (H9C2 cells [1]): 67.35%
Corrected Median Cy5.5 (H9C2 cells [2]; listed as Q8A_001): 9725.5
Corrected Median Cy5.5 (H9C2 cells [2]; listed as Q8A_002): 9339.0
Corrected Median Cy5.5 (H9C2 cells [2]; listed as Q8A_003): 9049.4
Raw Median Cy5.5 (H9C2 cells [2]; listed as Q8A_001): 10041
Raw Median Cy5.5 (H9C2 cells [2]; listed as Q8A_002): 9642
Raw Median Cy5.5 (H9C2 cells [2]; listed as Q8A_003): 9343
Average Correction (H9C2 cells [2]): 9371.3

APWHLSSQASRT (also: Cy5.5 conjugate, site not given here) [Y9A, alanine variant of CTP, Cy5.5 conjugated]
% transduction of H9C2 Cells (H9C2 cells [1]): 107%
Corrected Median Cy5.5 (H9C2 cells [2]; listed as Y9A_001): 5365.7
Corrected Median Cy5.5 (H9C2 cells [2]; listed as Y9A_002): 5445.9
Corrected Median Cy5.5 (H9C2 cells [2]; listed as Y9A_003): 5586.0
Raw Median Cy5.5 (H9C2 cells [2]; listed as Y9A_001): 5018
Raw Median Cy5.5 (H9C2 cells [2]; listed as Y9A_002): 5093
Raw Median Cy5.5 (H9C2 cells [2]; listed as Y9A_003): 5224
Average Correction (H9C2 cells [2]): 5465.9

APWHLSSQYART (also: Cy5.5 conjugate, site not given here) [S10A, alanine variant of CTP, Cy5.5 conjugated]
% transduction of H9C2 Cells (H9C2 cells [1]): 30.61%
Corrected Median Cy5.5 (H9C2 cells [2]; listed as S10A_001): 3707.6
Corrected Median Cy5.5 (H9C2 cells [2]; listed as S10A_002): 3658.1
Corrected Median Cy5.5 (H9C2 cells [2]; listed as S10A_003): 3959.6
Raw Median Cy5.5 (H9C2 cells [2]; listed as S10A_001): 1722
Raw Median Cy5.5 (H9C2 cells [2]; listed as S10A_002): 1699
Raw Median Cy5.5 (H9C2 cells [2]; listed as S10A_003): 1839
Average Correction (H9C2 cells [2]): 3775.1

APWHLSSQYSAT (also: Cy5.5 conjugate, site not given here) [R11A, alanine variant of CTP, Cy5.5 conjugated]
% transduction of H9C2 Cells (H9C2 cells [1]): 32.75%
Corrected Median Cy5.5 (H9C2 cells [2]; listed as R11A_001): 10237.9
Corrected Median Cy5.5 (H9C2 cells [2]; listed as R11A_002): 10010.7
Corrected Median Cy5.5 (H9C2 cells [2]; listed as R11A_003): 10518.6
Raw Median Cy5.5 (H9C2 cells [2]; listed as R11A_001): 9555
Raw Median Cy5.5 (H9C2 cells [2]; listed as R11A_002): 9343
Raw Median Cy5.5 (H9C2 cells [2]; listed as R11A_003): 9817
Average Correction (H9C2 cells [2]): 10255.7

APWHLSSQYSRA (also: Cy5.5 conjugate, site not given here) [T12A, alanine variant of CTP, Cy5.5 conjugated]
% transduction of H9C2 Cells (H9C2 cells [1]): 90.33%
Corrected Median Cy5.5 (H9C2 cells [2]; listed as T12A_001): 14307.2
Corrected Median Cy5.5 (H9C2 cells [2]; listed as T12A_002): 15682.3
Corrected Median Cy5.5 (H9C2 cells [2]; listed as T12A_003): 15498.6
Raw Median Cy5.5 (H9C2 cells [2]; listed as T12A_001): 18458
Raw Median Cy5.5 (H9C2 cells [2]; listed as T12A_002): 20232
Raw Median Cy5.5 (H9C2 cells [2]; listed as T12A_003): 19995
Average Correction (H9C2 cells [2]): 15162.7

— patent US12643924B2, “Cardiac-specific targeting-peptide (CTP), compositions, and uses thereof” (University of Pittsburgh—Of the Commonwealth System of …, priority 2018, dated 2026)
